Assay results taken from patent publication US20240390383A1, “DIOXAZINES AND THEIR USE IN TREATMENT OF GBA-RELATED DISEASES” (ZEVRA DENMARK A/S, priority 2021, published 2024).
Where “and” joins values, the source holds several entries; their conditions need not be identical. Equal values may be shown once. Marks after values point to notes of the source that are not given here.

Target: T1, GCase (GBA) in human fibroblast cell line GM10915 harboring the L444P GBA mutation (Homo sapiens, UniProt P04062, L483P)
T1 construct: Human fibroblast cell line GM10915 harboring the L444P GBA mutation; host or cells: GM10915 human fibroblasts
T1 sequence (P04062 40-536 L483P): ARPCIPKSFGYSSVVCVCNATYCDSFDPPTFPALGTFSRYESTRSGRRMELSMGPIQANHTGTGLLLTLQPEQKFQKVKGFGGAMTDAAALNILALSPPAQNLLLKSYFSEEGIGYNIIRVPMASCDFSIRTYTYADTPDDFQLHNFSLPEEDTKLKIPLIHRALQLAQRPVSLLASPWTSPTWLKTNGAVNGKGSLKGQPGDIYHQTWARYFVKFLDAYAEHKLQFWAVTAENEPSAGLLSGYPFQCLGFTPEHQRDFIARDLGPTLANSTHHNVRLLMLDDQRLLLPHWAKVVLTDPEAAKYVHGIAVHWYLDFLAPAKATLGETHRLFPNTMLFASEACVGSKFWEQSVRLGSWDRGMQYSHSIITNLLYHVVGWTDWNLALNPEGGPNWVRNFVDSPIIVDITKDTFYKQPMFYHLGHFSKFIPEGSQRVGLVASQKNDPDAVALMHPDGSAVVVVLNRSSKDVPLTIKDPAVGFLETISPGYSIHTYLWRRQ
Test: GCase activity assay (4-MUG substrate, normalised to crystal violet staining) in L444P GBA fibroblasts
Format: cell-based
Details: 5 days exposure; for GBA EC1.5: concentration giving 150% GCase activity (1.5-fold induction), 8-point dose range; for Emax / GBA Emax: maximum percent GCase activity relative to untreated cells in the dose range tested
Outline: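 Patient fibroblasts GM10915 (L444P GBA) exposed to compounds for five days over an 8-point range, with fresh dosing every 2–3 days. Intact-cell GCase measured with 2.5 mM 4-MUG at pH 4.0 for 23 h at 37 °C (ex/em 365/445 nm), normalised to crystal violet, as % of PBS basal; Emax is the maximum reached.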

| GBA EC1.5 | Emax [%] | GBA Emax | SMILES |
| --- | --- | --- | --- |
| 29 µM | 213 | – | COC1CN(C)CC1C1=NOCC(CN2CCCCC2)O1 (racemic) [compound 821, rac-3-(4-methoxy-1-methylpyrrolidin-3-yl)-5-(piperidin-1-ylmethyl)-5,6-dihydro-1,4,2-dioxazine] |
| 18 µM | 312 | – | CN1CCN(CCC2=NOCC(CN3CCCCC3)O2)CC1 (racemic) [compound 823, rac-3-(2-(4-methylpiperazin-1-yl)ethyl)-5-(piperidin-1-ylmethyl)-5,6-dihydro-1,4,2-dioxazine] |
| 7 µM | 190 | – | CN(C)CC1(C2=NOCC(CN3CCCCC3)O2)CCN(C)C1 (racemic) [compound 826, rac-N,N-dimethyl-1-(1-methyl-3-(5-(piperidin-1-ylmethyl)-5,6-dihydro-1,4,2-dioxazin-3-yl)pyrrolidin-3-yl)methanamine] |
| 19 µM | 203 | – | C1CCN(CC2CON=C([C@]34CNC[C@H]3CCOC4)O2)CC1 (relative stereo) [compound 461, rac-rel-trans-(3aR,7aR)-3a-(5-(piperidin-1-ylmethyl)-5,6-dihydro-1,4,2-dioxazin-3-yl)octahydropyrano[3,4-c]pyrrole] |
| 9 µM | 241 | – | C1CCN(CC2CON=C([C@]34CCN[C@H]3CCOC4)O2)CC1 (relative stereo) [compound 462, rac-rel-trans(3aR,7aS)-3a-(5-(piperidin-1-ylmethyl)-5,6-dihydro-1,4,2-dioxazin-3-yl)octahydropyrano[4,3-b]pyrrole di-2,2,2-trifluoroacetate] |
| 5 µM | – | 204% | C1CCN(CC2CON=C([C@]34CCC[C@H]3NCC4)O2)CC1 (relative stereo) [compound 469, rac-3-rel-trans-((3aS,6aR)-hexahydrocyclopenta[b]pyrrol-3a(1H)-yl)-5-(piperidin-1-ylmethyl)-5,6-dihydro-1,4,2-dioxazine] |
| 22 µM | 174 | – | C[C@@]12CNC[C@]1(C1=NOCC(CN3CCCCC3)O1)C2 (relative stereo) [compound 481, rac-rel-trans-3-((1R,5R)-5-methyl-3-azabicyclo[3.1.0]hexan-1-yl)-5-(piperidin-1-ylmethyl)-5,6-dihydro-1,4,2-dioxazine] |
| 14 µM | 268 | – | C1CCN(CC2CON=C([C@@]34CNC[C@@H]3C4)O2)CC1 (relative stereo) [compound 482, rac-rel-trans-3-((1R,5R)-3-azabicyclo[3.1.0]hexan-1-yl)-5-(piperidin-1-ylmethyl)-5,6-dihydro-1,4,2-dioxazine] |
| 25 µM | 174 | – | C1CCN(CC2CON=C([C@]34CC[C@H]3CNC4)O2)CC1 (relative stereo) [compound 485, rac-rel-trans-3-((1R,5R)-3-azabicyclo[3.2.0]heptan-1-yl)-5-(piperidin-1-ylmethyl)-5,6-dihydro-1,4,2-dioxazine di-2,2,2-trifluoroacetate] |
| 29 µM | 242 | – | C[C@@H]1CNC[C@@]1(C)C1=NOCC(CN2CCCCC2)O1 (relative stereo) [compound 489, rac-rel-cis-3-((3R,4R)-3,4-dimethylpyrrolidin-3-yl)-5-(piperidin-1-ylmethyl)-5,6-dihydro-1,4,2-dioxazine] |
| 18 µM | 307 | – | C1CCN(CC2CON=C([C@]34CNC[C@H]3COC4)O2)CC1 (relative stereo) [compound 494, rac-rel-trans-(3aR,6aR)-3a-(5-(piperidin-1-ylmethyl)-5,6-dihydro-1,4,2-dioxazin-3-yl)hexahydro-1H-furo[3,4-c]pyrrole] |
| 14 µM | 185 | – | C[C@@H]1CNC[C@H]1C1=NOCC(CN2CCCCC2)O1 (relative stereo) [compound 551, rac-rel-trans-3-((3R,4R)-4-methylpyrrolidin-3-yl)-5-(piperidin-1-ylmethyl)-5,6-dihydro-1,4,2-dioxazine] |
| 7 µM | 187 | – | CN(C)[C@H]1CC[C@@H](C2=NOCC(CN3CCCCC3)O2)CC1 (relative stereo) [compound 569, rac-rel-cis-(1S,4S)—N,N-dimethyl-4-(5-(piperidin-1-ylmethyl)-5,6-dihydro-1,4,2-dioxazin-3-yl)cyclohexan-1-amine] |
| 10 µM and 5 µM | – | 253% and 204% | C1CCN(CC2CON=C([C@]34CCC[C@H]3NCC4)O2)CC1 (relative stereo) [compound 584, rac-rel-trans-3-((3aS,6aR)-hexahydrocyclopenta[b]pyrrol-3a(1H)-yl)-5-(piperidin-1-ylmethyl)-5,6-dihydro-1,4,2-dioxazine] |
| 4 µM and 5 µM | – | 216% and 272% | C1CCN(C[C@@H]2CON=C([C@]34CCC[C@H]3NCC4)O2)CC1 (relative stereo) [compound 589, (rel-R)-3-((rel-trans-3aS,6aR)-hexahydrocyclopenta[b]pyrrol-3a(1H)-yl)-5-(piperidin-1-ylmethyl)-5,6-dihydro-1,4,2-dioxazine] |
| 16 µM | 274 | – | CN1C[C@@H](O)C[C@H](C2=NOCC(CN3CCCCC3)O2)C1 (relative stereo) [compound 724, rac-rel-(3R,5R)-1-methyl-5-(5-(piperidin-1-ylmethyl)-5,6-dihydro-1,4,2-dioxazin-3-yl)piperidin-3-ol] |
| 29 µM | 151 | – | CN(C)C(=O)[C@@]12CC[C@]1(C1=NOCC(CN3CCCCC3)O1)CNC2 (relative stereo) [compound 765, rac-rel-(1R,5S)—N,N-dimethyl-5-(5-(piperidin-1-ylmethyl)-5,6-dihydro-1,4,2-dioxazin-3-yl)-3-azabicyclo[3.2.0]heptane-1-carboxamide] |
| 7 µM | 296 | – | CC1(C2=NOCC(CN3CCCCC3)O2)CCNCC1 (single isomer, unassigned) [compound 567] |
| 4 µM and 3 µM | – | 211% and 273% | C1CCN(C[C@@H]2CON=C([C@]34CCC[C@H]3NCC4)O2)CC1 (single isomer, unassigned) [compound 590] |

| GBA EC1.5 | Emax [%] | GBA Emax | SMILES |
| --- | --- | --- | --- |
| 112 µM | – | – | CCCCCO[C@H]1CC[C@H](NC(=O)c2cnn3c(C)cc(C)nc23)CC1 [LTI-291, reference compound] |
| 35 µM | 149 | – | Cn1ncc(CC2(C3=NOCC(CN4CCCCC4)O3)CCNCC2)n1 (centres unmarked) [compound 507] |
| 13 µM | 136 | – | Cc1cncc(CC2(C3=NOCC(CN4CCCCC4)O3)CCNCC2)c1 (centres unmarked) [compound 520] |
| 1 µM | 147 | – | CC(C)c1ccc(CC2(C3=NOCC(CN4CCCCC4)O3)CCNCC2)cn1 (centres unmarked) [compound 538] |
| 3 µM | 138 | – | CN(C)c1ccc(CC2(C3=NOCC(CN4CCCCC4)O3)CCNCC2)cn1 (centres unmarked) [compound 543] |
| 1 µM | 140 | – | COc1ncc(CC2(C3=NOCC(CN4CCCCC4)O3)CCNCC2)cc1Cl (centres unmarked) [compound 545] |
| 50 µM | 115 | – | c1cncc(CC2(C3=NOCC(CN4CCCCC4)O3)CCOCC2)c1 (centres unmarked) [compound 552] |
| 50 µM | 114 | – | CN1CC[C@@H]2CN(CC3CON=C(C4(C)CCNCC4)O3)C[C@@H]21 (some centres unmarked) [compound 555] |
| 50 µM | 114 | – | F[C@H]1CN[C@H](C2=NOCC(CN3CCCCC3)O2)C1 (some centres unmarked) [compound 556] |
| 50 µM | 115 | – | N[C@@H]1CN[C@@H](C2=NOCC(CN3CCCCC3)O2)C1 (some centres unmarked) [compound 557] |
| 4 µM | 225 | – | C1CCN(CC2CON=C([C@]34CCC[C@H]3NCC4)O2)CC1 (some centres unmarked) [compound 558] |
| 50 µM | 104 | – | N[C@H]1CN[C@@H](C2=NOCC(CN3CCCCC3)O2)C1 (some centres unmarked) [compound 564] |
| 50 µM | 107 | – | FC(F)(F)CN1CCCC(C2=NOCC(CN3CCCCC3)O2)C1 (centres unmarked) [compound 570] |
| 50 µM | 105 | – | CN1CC2(C1)CN(CC1CON=C(C3(C)CCNCC3)O1)C2 (centres unmarked) [compound 580] |
| 50 µM | 114 | – | Cn1cnc(CC2(C3=NOCC(CN4CCCCC4)O3)CCNCC2)c1 (centres unmarked) [compound 582] |
| 50 µM | 100 | – | FC(F)(F)CN1CCCC(CC2=NOCC(CN3CCCCC3)O2)C1 (centres unmarked) [compound 587] |
| 50 µM | 110 | – | CN1C[C@@H]2CN(CC3CON=C(C4(C)CCNCC4)O3)C[C@@H]2C1 (some centres unmarked) [compound 592] |
| 50 µM | 105 | – | N[C@@H]1CN[C@H](C2=NOCC(CN3CCCCC3)O2)C1 (some centres unmarked) [compound 596] |

| SMILES | GBA EC1.5 | Emax [%] | GBA Emax |
| --- | --- | --- | --- |
| Nc1c(Br)cc(Br)cc1CN[C@H]1CC[C@H](O)CC1 [Ambroxol, reference compound] | >20* *The 1.5-fold induction criteria was not reached within the tested concentration range μM | – | – |
